Test results published in publication PMC12137978, “Design, molecular characterization and therapeutic investigation of a novel CCR8 peptide antagonist that attenuates acute liver injury by inhibiting infiltration and activation of macrophages” (Acta Pharmaceutica Sinica. B, 2025).
Where no end group is shown, it is not given here.

T1: CCR8 on LPS/IFNγ-activated RAW264.7 macrophages (Mus musculus, UniProt P56484)
T1 construct: endogenous in cells
T1 sequence (P56484 1-353): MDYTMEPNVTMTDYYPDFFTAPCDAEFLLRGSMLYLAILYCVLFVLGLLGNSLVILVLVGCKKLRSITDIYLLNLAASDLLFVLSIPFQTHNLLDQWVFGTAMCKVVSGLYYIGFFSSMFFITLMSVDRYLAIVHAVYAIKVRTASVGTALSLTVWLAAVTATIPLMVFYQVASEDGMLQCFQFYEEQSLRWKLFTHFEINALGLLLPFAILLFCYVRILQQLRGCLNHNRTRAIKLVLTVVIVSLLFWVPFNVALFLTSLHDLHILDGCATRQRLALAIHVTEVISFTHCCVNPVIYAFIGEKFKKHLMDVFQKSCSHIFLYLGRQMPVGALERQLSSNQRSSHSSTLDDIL


How the values were obtained:
[1] = AP8ii peptide stability in human serum by analytic HPLC; assay type: in vitro ADME; settings: 37 °C
Description: Analytic HPLC measurements were conducted in an Agilent 1260 Infinity II Liquid Chromatography system, equipped with a Polaris C18 column and a UV–Vis detector. The samples were analyzed with a mobile phase of MilliQ (solvent A) and acetonitrile (solvent B), both containing 0.1% v/v of formic acid, using a 1 mL/min flow rate within a run of 22 min. The gradient ramp was from 1% solvent B up to 60% solvent B in 15 min, then from 60% solvent B to 99% solvent in 5 min, finally 2 min at 99% of solvent B. Each injection used 50 μL, out of the 150 μL in the vial. Detection was performed at λ = 280 nm. Integration of the signals (e.g., peak area) in the chromatogram was performed using OpenLab CDS (data analysis software).
An adapted protocol based on[43] was followed for analysis. In a vial, 475 μL of 1 mmol/L peptide solution was mixed with 50 μL of human serum (making 0.95 mmol/L peptide in 10 vol% serum). The sample was incubated at 37 °C for increasing time. At 0, 1, 2, 4 and 24 h, an aliquot of 125 μL was taken from the vial, quenched with 50 μL of 10% TFA solution in MilliQ and centrifuged for 1 min at 13,000 rpm. Then 150 μL of the supernatant was taken for analysis. Control samples containing only peptide (e.g., without serum) and only human serum (e.g., without peptide) were included. All measurements were conducted in duplicates. Data of peak absolute area were expressed as mean ± standard deviation (SD).

RAW264.7 macrophages = assay: Alamar Blue cell viability assay, RAW264.7; assay type: cell-based, mouse; settings: 10 μmol/L, 24 h, with or without LPS/IFNγ; three independent experiments
Description: To assess the effects of AP8ii on the cell viability, cells were plated in 24-well plates, cultured overnight and incubated with AP8ii or R243 (10 μmol/L) with or without 100 ng/mL LPS and 10 ng/mL IFNγ (for 24 h, cell viability assays were performed using Alamar Blue reagent (Invitrogen, Carlsbad, CA, USA) as per manufacturer's instructions. The results are represented as% cell viability normalized to untreated control cells (at 100%). All measurements were performed in triplicates in three independent experiments.

[2] = tested on: C57BL/6 mice with CCl4-induced acute liver injury; assay: CCl4-induced acute liver injury mouse model; assay type: in vivo; settings: 1 μmol/kg twice daily, 2 days after CCl4
Description: All the animal experiments were carried out according to the ethical guidelines for the Care and Use of Laboratory Animals (Utrecht University, The Netherlands). CCl4 was prepared in olive oil ([…], 63.76 mg/mL) and AP8ii (1 μmol/kg) and R243 (1 μmol/kg) were prepared in hydroxypropyl-β-cyclodextrin (10%) and Kolliphor HS15 (5%) containing MilliQ water (85%). Male C57BL/6 mice (12 weeks old) received a single intraperitoneal injection (IP) of olive oil (healthy n = 9) or 0.2 mL/kg (318.8 mg/kg) CCl4 (vehicle n = 9, AP8 n = 9 and R243 n = 9) on Day 1. On Days 2 and 3, the CCl4-treated mice received vehicle, 1 μmol/kg AP8 (1.157 mg/kg) or 1 μmol/kg R243 (0.35744 mg/kg) twice daily. […] Total alanine aminotransferase (ALT) and aspartate transferase (AST) levels were determined in the plasma samples as per standard biochemical assays.
Cell suspension were prepared from freshly collected liver tissues using the TissueGrinder (TG, Fast Forward Discoveries GmbH, Mannheim, Germany) as detailed earlier. […] Cells were washed 3 times, stained with rat anti-mouse fluorescent antibodies (CD45-APC, CD11b-PE and F4/80-PE/Cy7, 0.2 μg/100 μL, Biolegend) for 1 h, Hoechst 33,342 (10 μg/100 μL, Thermo Fisher) for 30 min, and analyzed within 7 days. […]

[3] = molecular target: T1, CCR8 on LPS/IFNγ-activated RAW264.7 macrophages; assay: Competitive peptide binding study (co-incubation and pre-incubation)
Description: For competitive studies, the peptide binding protocol was used however competition with R243, CCL1 and anti-CCR8 antibody was performed. Two types of competitive studies were performed—co-incubation and pre-incubation where macrophages were either co-incubated with equimolar concentration of R243 (10 μmol/L), CCL1 (100 ng/mL) or anti-CCR8 antibody (5.0 μg/mL, Cat. No. MAB-8324, Novus biologicals, […], USA) and AP8ii (10 μmol/L), or preincubated with R243 (10 μmol/L), CCL1 (100 ng/mL) or anti-CCR8 antibody (5.0 μg/mL) for 2 h followed by addition of AP8ii (10 μmol/L) for an additional 4 h. Finally, images were captured at 10 ×, 20 × and 40 ×, and RhB intensity was analyzed using ImageJ software and normalized to the number of nuclei using DAPI.

Molecule | remaining at 24 h, 0.95 mmol/L ([1]; 0.95 mmol/L peptide in 10 vol% human serum, 24 h, TFA quench, analytic HPLC C18, UV 280 nm, peak area, duplicates, read-out: peptide remained intact after 24 h of incubation) [%] | half-life at 0.95 mmol/L ([1]; 0.95 mmol/L peptide in 10 vol% human serum, analytic HPLC UV 280 nm, read-out: t1/2 in human serum) [h] | stability on exposure to serum (peak absolute area) ([1]; 10 vol% human serum, first 4 h, analytic HPLC UV 280 nm) | toxicity (Alamar blue-based metabolic assay) (RAW264.7 macrophages) | body weight during treatment [2] | AP8ii binding blocked, co-incubation study ([3]; competitor (R243 10 μmol/L, CCL1 100 ng/mL, anti-CCR8 antibody 5.0 μg/mL) co-incubated with RhB-labeled AP8ii 10 μmol/L 4 h) [%] | AP8ii binding blocked, pre-incubation study ([3]; competitor (R243 10 μmol/L, CCL1 100 ng/mL, anti-CCR8 antibody 5.0 μg/mL) preincubated 2 h, then RhB-labeled AP8ii 10 μmol/L 4 h) [%]
YEWRFYHG [AP8ii, Tyr-Glu-Trp-Arg-Phe-Tyr-His-Gly] | > 82 | > 24 | remained stable during the first 4 h | no significant toxicity | increased | – | –
CCL1: Human Recombinant I-309 (CCL1), CCR8 ligand (300-37-B, Tebu-bio) (protein, UniProt P22362 24-96, looked up) C-C motif chemokine 1: KSMQVPFSRCCFSFAEQEIPLRAILCYRNTSSICSNEGLIFKLKRGKEACALDTVGWVQRHRKMLRHCPSKRK | – | – | – | – | – | ~20 | ~30
